From patent US12516039B2, “N-linked isoquinoline amides as LRRK2 inhibitors, pharmaceutical compositions, and uses thereof” (Merck Sharp & Dohme LLC, priority 2020, dated 2026) come the findings set out here.

T1 sequence (Q5S007 970-2527 G2019S limits assumed): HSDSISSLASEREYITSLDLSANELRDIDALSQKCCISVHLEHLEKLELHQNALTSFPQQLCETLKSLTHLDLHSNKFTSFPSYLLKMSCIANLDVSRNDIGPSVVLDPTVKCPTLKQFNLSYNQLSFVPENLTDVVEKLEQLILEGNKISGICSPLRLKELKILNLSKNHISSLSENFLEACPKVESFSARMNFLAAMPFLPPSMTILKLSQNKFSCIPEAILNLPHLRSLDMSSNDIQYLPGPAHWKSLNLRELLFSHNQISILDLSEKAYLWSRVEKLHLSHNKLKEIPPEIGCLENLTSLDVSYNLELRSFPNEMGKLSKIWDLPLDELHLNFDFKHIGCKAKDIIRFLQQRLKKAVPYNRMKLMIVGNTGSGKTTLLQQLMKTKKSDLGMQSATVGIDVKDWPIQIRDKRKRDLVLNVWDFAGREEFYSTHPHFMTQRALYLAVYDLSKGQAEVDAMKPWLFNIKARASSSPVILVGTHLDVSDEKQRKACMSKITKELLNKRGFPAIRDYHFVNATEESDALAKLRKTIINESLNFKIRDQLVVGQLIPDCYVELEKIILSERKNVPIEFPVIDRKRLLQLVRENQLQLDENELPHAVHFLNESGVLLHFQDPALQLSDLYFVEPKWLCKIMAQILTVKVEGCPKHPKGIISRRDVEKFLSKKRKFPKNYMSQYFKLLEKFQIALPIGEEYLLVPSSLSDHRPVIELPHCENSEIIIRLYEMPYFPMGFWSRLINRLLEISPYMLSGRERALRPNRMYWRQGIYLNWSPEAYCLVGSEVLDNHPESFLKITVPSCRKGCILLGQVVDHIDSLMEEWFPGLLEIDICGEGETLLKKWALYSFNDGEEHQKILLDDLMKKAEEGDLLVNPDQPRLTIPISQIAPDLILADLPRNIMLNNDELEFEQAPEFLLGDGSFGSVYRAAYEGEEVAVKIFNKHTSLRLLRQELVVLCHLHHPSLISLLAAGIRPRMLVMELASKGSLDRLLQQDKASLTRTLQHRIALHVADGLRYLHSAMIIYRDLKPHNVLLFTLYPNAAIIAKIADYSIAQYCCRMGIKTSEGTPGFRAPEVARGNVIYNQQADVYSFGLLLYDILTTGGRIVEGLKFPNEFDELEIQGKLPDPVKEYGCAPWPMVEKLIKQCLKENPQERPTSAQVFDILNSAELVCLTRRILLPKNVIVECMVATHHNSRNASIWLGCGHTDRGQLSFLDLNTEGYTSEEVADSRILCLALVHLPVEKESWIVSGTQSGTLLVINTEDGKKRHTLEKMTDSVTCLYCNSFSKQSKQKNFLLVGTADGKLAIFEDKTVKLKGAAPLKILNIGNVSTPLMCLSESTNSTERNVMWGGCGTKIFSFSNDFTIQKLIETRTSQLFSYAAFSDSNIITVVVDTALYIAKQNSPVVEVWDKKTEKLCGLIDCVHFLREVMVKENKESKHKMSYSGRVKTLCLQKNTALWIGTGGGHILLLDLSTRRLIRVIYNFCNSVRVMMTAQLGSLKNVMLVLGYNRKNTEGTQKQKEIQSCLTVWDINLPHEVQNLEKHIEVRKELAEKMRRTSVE

One assay concerns the target T1, GST-tagged truncated human mutant G2019S LRRK2 (Homo sapiens, UniProt Q5S007, G2019S).
T1 construct: GST-tagged truncated human mutant G2019S LRRK2; purchased Life Technologies Corporation (Carlsbad, CA)
In words: LRRK2 G2019S Km ATP LanthaScreen assay. The class given is biochemical. The following applies: 134 μM ATP (Km ATP), LRRKtide substrate, mean of several tests. A digest of the protocol:
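GST-tagged truncated human LRRK2 G2019S (1.25 nM enzyme solution) was preincubated 15 min with compound, then reacted 90 min at ambient temperature with fluorescein-LRRKtide (400 nM solution) and 134 μM ATP (Km) in Tris pH 8.5. EDTA stop; Tb anti-phospho-LRRKtide TR-FRET (520/495 ratio). IC50 from 4-parameter fits, mean of several runs.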
Regarding “(3R or 3S)-N-[6-[4-((3R,4R or 3S,4S)-4-fluoro-3-methyl-tetrahydrofuran-3-yl)piperazin-1-yl]-7-methyl-3-isoquinolyl]-5,5-dimethyl-tetrahydrofuran-3-carboxamide [Ex-10.96]”, the “LRRK2 pIC50” value is reported as 8.99.

Still in this assay, the particulars now being: 134 μM ATP (Km ATP), LRRKtide substrate, mean of several tests, read-out: LRRK2 pIC50 (converted).
Turning to `CC1(N2CCN(c3cc4cc(NC(=O)C5CC56CCC6)ncc4cc3Cl)CC2)COCC1O` (single isomer, unassigned) [Ex-1.8, (1R or 1S)-N-(7-chloro-6-(4-((3R,4R or 3S,4S)-4-hydroxy-3-methyltetrahydrofuran-3-yl)piperazin-1-yl)isoquinolin-3-yl)spiro[2.3]hexane-1-carboxamide], the IC50 is 2.34 nM.

For the compound `CC1(N2CCN(c3cc4cc(NC(=O)C5CC56CCC6)ncc4cc3Cl)CC2)COCC1O` (single isomer, unassigned) [Ex-1.7, (1R or 1S)-N-(7-chloro-6-(4-((3R,4R or 3S,4S)-4-hydroxy-3-methyltetrahydrofuran-3-yl)piperazin-1-yl)isoquinolin-3-yl)spiro[2.3]hexane-1-carboxamide], the IC50 is 6.61 nM.

`CC1(N2CCN(c3cc4cc(NC(=O)C5CC56CCOCC6)ncc4cc3Cl)CC2)CCOC1` (single isomer, unassigned) [Ex-5.13]: the IC50 was 83.2 nM.

With `Cn1ncc(C2CC2C(=O)Nc2cc3cc(N4CCN(C5(C)COCC5F)CC4)c(Cl)cc3cn2)c1C(F)(F)F` (single isomer, unassigned) [Ex-10.61, (1R,2R or 1S,2S)-N-[7-chloro-6-[4-((3R,4R or 3S,4S)-4-fluoro-3-methyl-tetrahydrofuran-3-yl)piperazin-4-ium-1-yl]-3-isoquinolyl]-2-[1-methyl-5-(trifluoromethyl)pyrazol-4-yl]cyclopropanecarboxamide], the IC50 is 3.02 nM.

Consider `Cn1ncc(C2CC2C(=O)Nc2cc3cc(N4CCN(C5(C)CCOC5)CC4)c(Cl)cc3cn2)c1C(F)(F)F` (single isomer, unassigned) [Ex-10.27, (1R,2R or 1S,2S)-N-[7-chloro-6-[4-((R or S)-3-methyltetrahydrofuran-3-yl)piperazin-4-ium-1-yl]-3-isoquinolyl]-2-[1-methyl-5-(trifluoromethyl)pyrazol-4-yl]cyclopropanecarboxamide], for which the IC50 was 38 nM.

Turning to `CC1(C2CCOC2)CC1C(=O)Nc1cc2cc(N3CCN(C4(C)COCC4O)CC3)c(Cl)cc2cn1` (single isomer, unassigned) [Ex-10.87, (1R,2R or 1S,2S, or 1R,2S, or 1S,2R)-N-[7-chloro-6-[4-((3R,4R or 3S,4S)-4-hydroxy-3-methyl-tetrahydrofuran-3-yl)piperazin-1-yl]-3-isoquinolyl]-2-methyl-2-tetrahydrofuran-3-yl-cyclopropanecarboxamide], the IC50 was 0.0813 nM.

As for `O=C(Nc1cc2cc(N3C(=O)C4CCC3C4)ccc2cn1)C1CC1` (single isomer, unassigned) [Ex-5.1], the IC50 was 9.55 nM.

For the compound `CC1(N2CCN(c3cc4cc(NC(=O)C5CCC(F)(F)CO5)ncc4cc3Cl)CC2)COCC1O` (single isomer, unassigned) [Ex-10.1, (2R or 2S)-N-(7-chloro-6-((3R, 4R or 3S, 4S)-4-(4-hydroxy-3-methyltetrahydrofuran-3-yl)piperazin-1-yl)isoquinolin-3-yl)-5,5-difluorotetrahydro-2H-pyran-2-carboxamide], the IC50 was 0.933 nM.

As to `CC(C)Cn1nccc1C1CC1C(=O)Nc1cc2cc(N3CCN(C4(C)COCC4O)CC3)c(Cl)cc2cn1` (single isomer, unassigned) [Ex-10.20, (1R,2R or 1S,2S)-N-[7-chloro-6-[4-((3R,4R or 3S,4S)-4-hydroxy-3-methyl-tetrahydrofuran-3-yl)piperazin-1-yl]-3-isoquinolyl]-2-(2-isobutylpyrazol-3-yl)cyclopropanecarboxamide], the IC50 is 2.24 nM.

As to `CC1C(C(=O)Nc2cc3cc(N4CCN(C5(C)CCOC5)CC4)c(Cl)cc3cn2)C1c1cnn(C)c1` (stereo not shown) [Ex-9.6], the IC50 was 1 nM.

Regarding `CCC1C(C(=O)Nc2cc3cc(N4CCN(C5(C)COCC5O)CC4)c(Cl)cc3cn2)C1c1ccn(C)n1` (single isomer, unassigned) [Ex-10.65, (1R,2R,3R, or 1R,2S,3R, or 1S,2R,3S, or 1S,2S,3S)-N-[7-chloro-6-[4-( (3R,4R or 3S,4S)-4-hydroxy-3-methyl-tetrahydrofuran-3-yl)piperazin-1-yl]-3-isoquinolyl]-2-ethyl-3-(1-methylpyrazol-3-yl)cyclopropanecarboxamide], the IC50 was 0.0813 nM.

As for `CC1(C#N)CCN(c2cc3cc(NC(=O)C4CC4c4cncnc4)ncc3cc2Cl)CC1` (single isomer, unassigned) [Ex-5.16], the IC50 is 427 nM.

For the compound `CC1(N2CCN(c3cc4cc(NC(=O)C5CC56CCC(F)(F)CC6)ncc4cc3Cl)CC2)COCC1O` (single isomer, unassigned) [Ex-1.19, (1R or 1S)-N-(7-chloro-6-(4-((3R,4R or 3S,4S)-4-hydroxy-3-methyltetrahydrofuran-3-yl)piperazin-1-yl)isoquinolin-3-yl)-6,6-difluorospiro[2.5]octane-1-carboxamide], the IC50 was 1.1 nM.

In the case of `CC1(N2CCN(c3cc4cc(NC(=O)C5CC56CCOCC6)ncc4cc3Cl)CC2)CCOC1` (single isomer, unassigned) [Ex-5.14], the IC50 is 302 nM.

`Cc1cc2cnc(NC(=O)C3CC3c3ccccn3)cc2cc1N1CCN(C2(C)CCOC2)CC1` (single isomer, unassigned) [Ex-9.17]: the IC50 is 1.29 nM.

Turning to `CC1(C)C(C(=O)Nc2cc3cc(N4CCN(C5(C)COCC5O)CC4)c(Cl)cc3cn2)C1C1CCCCO1` (single isomer, unassigned) [Ex-10.92, (1R,2R,3R, 1R,2S,3R, or 1S,2R,3S, or 1S,2S,3S)-N-[7-chloro-6-[4-((3R,4R or 3S,4S)-4-hydroxy-3-methyl-tetrahydrofuran-3-yl)piperazin-1-yl]-3-isoquinolyl]-2,2-dimethyl-3-tetrahydropyran-2-yl-cyclopropanecarboxamide], the IC50 is 1.95 nM.

As to `Cc1cc2cnc(NC(=O)C3CC34CCOCC4)cc2cc1N1CCN(C2(C)COCC2O)C[C@@H]1C` (single isomer, unassigned) [Ex-15.1, (R or S)-N-(6-((2R or 2S)-4-(4-(3R,4R or 3S,4S)-hydroxy-3-methyltetrahydrofuran-3-yl)-2-methylpiperazin-1-yl)-7-methylisoquinolin-3-yl)-6-oxaspiro[2.5]octane-1-carboxamide], the IC50 is 4.68 nM.

In the case of `CC(C)n1nccc1C1CC1C(=O)Nc1cc2cc(N3CCN(C4(C)COCC4O)CC3)c(Cl)cc2cn1` (single isomer, unassigned) [Ex-10.22, (1R,2R or 1S,2S)-N-[7-chloro-6-[4-((3R,4R or 3S,4S)-4-hydroxy-3-methyl-tetrahydrofuran-3-yl)piperazin-1-yl]-3-isoquinolyl]-2-(2-isopropylpyrazol-3-yl)cyclopropanecarboxamide], the IC50 is 2.69 nM.

For the compound `CC1(C2CCOC2)CC1C(=O)Nc1cc2cc(N3CCN(C4(C)COCC4O)CC3)c(Cl)cc2cn1` (single isomer, unassigned) [Ex-10.81, (1R,2R or 1S,2S, or 1R,2S, or 1S,2R)-N-[7-chloro-6-[4-((3R,4R or 3S,4S)-4-hydroxy-3-methyl-tetrahydrofuran-3-yl)piperazin-1-yl]-3-isoquinolyl]-2-methyl-2-tetrahydrofuran-3-yl-cyclopropanecarboxamide], the IC50 was 0.0813 nM.

`CC1(N2CCN(c3cc4cc(NC(=O)C5CCC5C#N)ncc4cc3Cl)CC2)COCC1F` (single isomer, unassigned) [Ex-10.68, (1R,2R or 1S,2S)-N-[7-chloro-6-[4-((3R,4R or 3S,4S)-4-fluoro-3-methyl-tetrahydrofuran-3-yl)piperazin-1-yl]-3-isoquinolyl]-2-cyano-cyclobutanecarboxamide]: the IC50 is 0.0813 nM.

In the case of `Cc1cc2cnc(NC(=O)C3CC3c3ccccn3)cc2cc1N1CCN(C2(C)CCOC2)CC1` (single isomer, unassigned) [Ex-9.18], the IC50 was 100 nM.

Take `N#CC1CCN(c2cc3cc(NC(=O)C4CC4c4cncnc4)ncc3cc2Cl)CC1` (single isomer, unassigned) [Ex-5.17]: the IC50 is 0.0813 nM.

With `CC1(N2CCN(c3cc4cc(NC(=O)C5CCC5c5ccccn5)ncc4cc3Cl)CC2)COCC1O` (single isomer, unassigned) [Ex-11.6, (1R,2R or 1S,2S)-N-(7-chloro-6-(4-((3R,4R or 3S,4S)-4-hydroxy-3-methyltetrahydrofuran-3-yl)piperazin-1-yl)isoquinolin-3-yl)-2-(pyridin-2-yl)cyclobutane-1-carboxamide], the IC50 was 0.132 nM.

Take `CCC1C(C(=O)Nc2cc3cc(N4CCN(C5(C)CCOC5)CC4)c(Cl)cc3cn2)C1c1cnn(C)c1` (single isomer, unassigned) [Ex-9.10]: the IC50 is 0.0813 nM.

As to `CC1(N2CCN(c3cc4cc(NC(=O)C5CC56CC6(F)F)ncc4cc3Cl)CC2)COCC1O` (single isomer, unassigned) [Ex-3.2], the IC50 is 1.07 nM.

On to `CC1(N2CCN(c3cc4cc(NC(=O)C5CC5C5CCOCC5)ncc4cc3Cl)CC2)COCC1O` (single isomer, unassigned) [Ex-10.31, (1R,2R or 1S,2S)-N-[7-chloro-6-[4-((3R,4R or 3S,4S)-4-hydroxy-3-methyl-tetrahydrofuran-3-yl)piperazin-1-yl]-3-isoquinolyl]-2-tetrahydropyran-4-yl-cyclopropanecarboxamide], for which the IC50 is 0.0813 nM.

For the compound `CC(C)n1nccc1C1CC1C(=O)Nc1cc2cc(N3CCN(C4(C)COCC4O)CC3)c(Cl)cc2cn1` (single isomer, unassigned) [Ex-10.21, (1R,2R or 1S,2S)-N-[7-chloro-6-[4-((3R,4R or 3S,4S)-4-hydroxy-3-methyl-tetrahydrofuran-3-yl)piperazin-1-yl]-3-isoquinolyl]-2-(2-isopropylpyrazol-3-yl)cyclopropanecarboxamide], the IC50 is 44.7 nM.
